We go through two compounds from patent US20070088080A1, “Gsk-3 inhibitors isolated from marine organisms” (NEUROPHARMA, S.A., priority 2003, published 2007).

Assay [1] concerns Tau phosphorylation [pS396] in human neuroblastoma SHSY5Y cells. As to the kind of experiment: Inhibition of tau phosphorylation in SHSY5Y cells, Tau [pS396] sandwich ELISA. It is filed as cell-based. As to conditions: at 200 μM, 24 h. Here is the method: 1.1.2. Inhibition of Tau Phosphorylation Human neuroblastoma SHSY5Y cells were seeded in 96-well plates (25000 cells/well) in Dulbecco's modified Eagle's medium (DMEM) supplemented with 10% fetal calf serum. One day later, cells were treated with samples for 24 h at 37° C. After treatment, cultures were washed with phosphate-buffered saline and lysed for 30 min at 4° C. in 120 μl of extraction buffer (10 mM Tris-HCl, pH 7.4, 100 mM NaCl, 1 mM EDTA, 2 mM Na3VO4, 1% Triton X-100, 10% glycerol, 0.1% SDS, 0.5% Sodium deo.ycholate, 1 mM PMSF and a protease inhibitor cocktail.
The quantitative definition of phosphorylated human Tau was made taking 40 μl of the cell lysate and using a phosphorylation-specific antibody against Tau [pS396] in a sandwich ELISA. Tau phosphorylation was estimated by measuring of absorbance at 450 nm in a microtiter plate reader.

In assay [2] the target is Recombinant human glycogen synthase kinase 3β (Homo sapiens, UniProt P49841). Description: GSK3β inhibition, radiometric kinase assay with GS-2 peptide and 33P-ATP.
Sequence of Recombinant human glycogen synthase kinase 3β (P49841 whole entry): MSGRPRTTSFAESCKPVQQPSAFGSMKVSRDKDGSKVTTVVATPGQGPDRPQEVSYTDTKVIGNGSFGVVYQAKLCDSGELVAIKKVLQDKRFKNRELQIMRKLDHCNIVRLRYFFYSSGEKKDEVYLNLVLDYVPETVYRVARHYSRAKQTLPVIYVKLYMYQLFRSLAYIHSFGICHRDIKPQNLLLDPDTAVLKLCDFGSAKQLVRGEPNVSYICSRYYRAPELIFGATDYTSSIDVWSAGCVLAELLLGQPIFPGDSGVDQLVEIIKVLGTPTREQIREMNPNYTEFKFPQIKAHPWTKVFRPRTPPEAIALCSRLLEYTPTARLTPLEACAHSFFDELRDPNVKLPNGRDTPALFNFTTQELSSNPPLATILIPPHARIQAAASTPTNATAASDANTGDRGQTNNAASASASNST
Procedure: Recombinant human glycogen synthase kinase 3B was assayed in MOPS 8 mM pH7.3, EDTA 0.2 mM, MgCl. 10 mM and sodium orthovanadate 0.25 mM in the presence of 62.5 μM of Phospho-Glycogen Synthase Peptide-2 (GS-2), 0.5 μCi γ-^33P-ATP and unlabelled ATP at a final concentration of 12.5 μM. The final assay volume was 20 μl. After incubation for 30 minutes at 30° C., 15 μl aliquots were spotted onto P81 phosphocellulose papers. Filters were washed four times for at least 10 minutes each and counted with 1.5 ml of scintillation cocktail in a scintillation counter.

Consider `CC1=C(O)[C@@H](C/C(C)=C/CC[C@H](C)/C=C/C=C(\C)CCCc2ccoc2)OC1=O` [Palinurin], for which the “inhibition of tau phosphorylation, cellular assay” value in assay [1] was “significant inhibition”. For the same compound, the IC50 (commonly the concentration needed to halve the response being measured) in assay [2] amounted to 4.5 µM. In assay [2] (kinetic experiments varying both ATP and inhibitor concentrations, preliminary), the “mechanism of inhibition of GSK3β” value is recorded as “non As-competitive inhibitor”.

Regarding `C/C(=C\C=C\C(C)CC/C=C(\C)CC1OC(=O)C(=O)C1=O)CCCc1ccoc1` (stereo not shown) [Tricantin], the “inhibition of tau phosphorylation, cellular assay” value in assay [1] was “significant inhibition”.
